According to patent EP4603105A1, “PHARMACEUTICAL COMPOSITION CONTAINING CYCLIC COMPOUND HAVING SELECTIVE KRAS INHIBITORY EFFECT AGAINST HRAS AND NRAS” (CHUGAI SEIYAKU KABUSHIKI KAISHA, priority 2022, dated 2024):

Assays:
[1] = target: HRAS wild-type protein (Homo sapiens, UniProt P01112); test: Binding to HRAS by surface plasmon resonance (SPR), KD and KD ratio to KRAS; settings: ratio of the KD value with respect to HRAS wild-type protein to the KD value with respect to KRAS
Summary of the method: (§1)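 Compound binding is evaluated by SPR single-cycle kinetics, with concentrations added intermittently from low to high for 75 s each. Target surfaces carry GDP-loaded biotinylated Avi-RAS at about 100–300 RU, regenerated after each cycle; temperature 30°C. A 1:1 binding model gives KD.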

[2] = tested on: human lung cancer strain NCI-H441; type: cell-based
Summary of the method: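 Proliferation was scored by […] measured after the reagent was added to cultures kept at 37°C in 5% carbon dioxide.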

[3] = target: GDP-bound NRAS wild-type protein (Homo sapiens, UniProt P01111); test: Binding to NRAS by surface plasmon resonance (SPR), KD and KD ratio to KRAS; settings: ratio of the KD value with respect to GDP-bound NRAS wild-type protein to the KD value with respect to KRAS
Summary of the method: as §1

Chain of GDP-bound NRAS wild-type protein (P01111 whole entry): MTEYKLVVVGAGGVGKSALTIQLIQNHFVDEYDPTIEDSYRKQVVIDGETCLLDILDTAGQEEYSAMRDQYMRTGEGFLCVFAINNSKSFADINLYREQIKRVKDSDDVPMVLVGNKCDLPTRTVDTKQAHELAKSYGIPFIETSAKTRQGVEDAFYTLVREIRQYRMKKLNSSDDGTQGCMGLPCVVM
Chain of HRAS wild-type protein (P01112 whole entry): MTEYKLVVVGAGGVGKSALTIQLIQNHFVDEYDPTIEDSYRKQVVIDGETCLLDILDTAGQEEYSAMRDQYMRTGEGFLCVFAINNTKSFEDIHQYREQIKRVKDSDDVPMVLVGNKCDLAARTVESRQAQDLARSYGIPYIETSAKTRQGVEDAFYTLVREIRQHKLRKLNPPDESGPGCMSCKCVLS

CCC[C@H]1C(=O)N[C@@H]([C@@H](C)CC)C(=O)N(C)CC(=O)N(C)[C@H]2CCCCN(C2=O)[C@@H](Cc2ccc(C(F)(F)F)cc2)C(=O)N(C)CC(=O)N[C@@H](CCc2cc(F)c(C(F)(F)F)c(F)c2)C(=O)N2C[C@H](OCC)C[C@H]2C(=O)NC2(CCC2)C(=O)N(C)[C@@H](C2CCCC2)C(=O)N(C)[C@H](C(=O)N(C)C)CC(=O)N1C [PP0694]
HRAS /KRAS [1]: C (A compound having a KD ratio of 0.1 or more and less than 3 is denoted as C) | IC50 [2]: 3.5 nM | NRAS /KRAS [3]: C (A compound having a KD ratio of 0.1 or more and less than 3 is denoted as C)

C=CC[C@H]1C(=O)N[C@@H]([C@@H](C)CC)C(=O)N(C)CC(=O)N(C)[C@H]2CCCCN(C2=O)[C@@H](Cc2ccc(C(F)(F)F)cc2)C(=O)N(C)CC(=O)N[C@@H](CCc2cc(F)c(C(F)(F)F)c(F)c2)C(=O)N2C[C@H](OCC)C[C@H]2C(=O)NC2(CCC2)C(=O)N(C)[C@@H](C2CCCC2)C(=O)N(C)[C@H](C(=O)N(C)C)CC(=O)N1C [PP0695]
HRAS /KRAS [1]: C (A compound having a KD ratio of 0.1 or more and less than 3 is denoted as C) | IC50 [2]: 2.9 nM | NRAS /KRAS [3]: C (A compound having a KD ratio of 0.1 or more and less than 3 is denoted as C)

C#CC[C@H]1C(=O)N[C@@H]([C@@H](C)CC)C(=O)N(C)CC(=O)N(C)[C@H]2CCCCN(C2=O)[C@@H](Cc2ccc(C(F)(F)F)cc2)C(=O)N(C)CC(=O)N[C@@H](CCc2cc(F)c(C(F)(F)F)c(F)c2)C(=O)N2C[C@H](OCC)C[C@H]2C(=O)NC2(CCC2)C(=O)N(C)[C@@H](C2CCCC2)C(=O)N(C)[C@H](C(=O)N(C)C)CC(=O)N1C [PP0696]
HRAS /KRAS [1]: B (a compound having 3 or more and less than 10 is denoted as B) | IC50 [2]: 3.3 nM | NRAS /KRAS [3]: B (a compound having 3 or more and less than 10 is denoted as B)

CCO[C@@H]1C[C@H]2C(=O)NC3(CCC3)C(=O)N(C)[C@@H](C3CCCC3)C(=O)N(C)[C@H](C(=O)N(C)C)CC(=O)N(C)[C@@H](CC3CC3)C(=O)N[C@@H]([C@@H](C)CC)C(=O)N(C)CC(=O)N(C)[C@H]3CCCCN(C3=O)[C@@H](Cc3ccc(C(F)(F)F)cc3)C(=O)N(C)CC(=O)N[C@@H](CCc3cc(F)c(C(F)(F)F)c(F)c3)C(=O)N2C1 [PP0697]
HRAS /KRAS [1]: C (A compound having a KD ratio of 0.1 or more and less than 3 is denoted as C) | IC50 [2]: 3.8 nM | NRAS /KRAS [3]: C (A compound having a KD ratio of 0.1 or more and less than 3 is denoted as C)

CCO[C@@H]1C[C@H]2C(=O)NC3(CCC3)C(=O)N(C)[C@@H](C3CCCC3)C(=O)N(C)[C@H](C(=O)N(C)C)CC(=O)N(C)[C@@H](CC3CCC3)C(=O)N[C@@H]([C@@H](C)CC)C(=O)N(C)CC(=O)N(C)[C@H]3CCCCN(C3=O)[C@@H](Cc3ccc(C(F)(F)F)cc3)C(=O)N(C)CC(=O)N[C@@H](CCc3cc(F)c(C(F)(F)F)c(F)c3)C(=O)N2C1 [PP0698]
HRAS /KRAS [1]: C (A compound having a KD ratio of 0.1 or more and less than 3 is denoted as C) | IC50 [2]: 4.1 nM | NRAS /KRAS [3]: C (A compound having a KD ratio of 0.1 or more and less than 3 is denoted as C)

CCO[C@@H]1C[C@H]2C(=O)NC3(CCC3)C(=O)N(C)[C@@H](C3CCCC3)C(=O)N(C)[C@H](C(=O)N(C)C)CC(=O)N(C)[C@@H](CC(C)(C)C)C(=O)N[C@@H]([C@@H](C)CC)C(=O)N(C)CC(=O)N(C)[C@H]3CCCCN(C3=O)[C@@H](Cc3ccc(C(F)(F)F)cc3)C(=O)N(C)CC(=O)N[C@@H](CCc3cc(F)c(C(F)(F)F)c(F)c3)C(=O)N2C1 [PP0699]
HRAS /KRAS [1]: C (A compound having a KD ratio of 0.1 or more and less than 3 is denoted as C) | IC50 [2]: 2.9 nM | NRAS /KRAS [3]: C (A compound having a KD ratio of 0.1 or more and less than 3 is denoted as C)

CCO[C@@H]1C[C@H]2C(=O)NC3(CCC3)C(=O)N(C)[C@@H](C3CCCC3)C(=O)N(C)[C@H](C(=O)N(C)C)CC(=O)N(C)[C@@H](CC3CCCCC3)C(=O)N[C@@H]([C@@H](C)CC)C(=O)N(C)CC(=O)N(C)[C@H]3CCCCN(C3=O)[C@@H](Cc3ccc(C(F)(F)F)cc3)C(=O)N(C)CC(=O)N[C@@H](CCc3cc(F)c(C(F)(F)F)c(F)c3)C(=O)N2C1 [PP0701]
HRAS /KRAS [1]: B (a compound having 3 or more and less than 10 is denoted as B) | IC50 [2]: 3.8 nM | NRAS /KRAS [3]: C (A compound having a KD ratio of 0.1 or more and less than 3 is denoted as C)

CCO[C@@H]1C[C@H]2C(=O)NC3(CCC3)C(=O)N(C)[C@@H](C3CCCC3)C(=O)N(C)[C@H](C(=O)N(C)C)CC(=O)N(C)[C@@H](Cc3cccnc3)C(=O)N[C@@H]([C@@H](C)CC)C(=O)N(C)CC(=O)N(C)[C@H]3CCCCN(C3=O)[C@@H](Cc3ccc(C(F)(F)F)cc3)C(=O)N(C)CC(=O)N[C@@H](CCc3cc(F)c(C(F)(F)F)c(F)c3)C(=O)N2C1 [PP0703]
HRAS /KRAS [1]: B (a compound having 3 or more and less than 10 is denoted as B) | IC50 [2]: 26.7 nM | NRAS /KRAS [3]: C (A compound having a KD ratio of 0.1 or more and less than 3 is denoted as C)

CCO[C@@H]1C[C@H]2C(=O)NC3(CCC3)C(=O)N(C)[C@@H](C3CCCC3)C(=O)N(C)[C@H](C(=O)N(C)C)CC(=O)N(C)[C@@H](COC)C(=O)N[C@@H]([C@@H](C)CC)C(=O)N(C)CC(=O)N(C)[C@H]3CCCCN(C3=O)[C@@H](Cc3ccc(C(F)(F)F)cc3)C(=O)N(C)CC(=O)N[C@@H](CCc3cc(F)c(C(F)(F)F)c(F)c3)C(=O)N2C1 [PP0704]
HRAS /KRAS [1]: C (A compound having a KD ratio of 0.1 or more and less than 3 is denoted as C) | IC50 [2]: 11.4 nM | NRAS /KRAS [3]: C (A compound having a KD ratio of 0.1 or more and less than 3 is denoted as C)

CCO[C@@H]1C[C@H]2C(=O)NC3(CCC3)C(=O)N(C)[C@@H](C3CCCC3)C(=O)N(C)[C@H](C(=O)N(C)C)CC(=O)N(C)[C@@H](CCOC)C(=O)N[C@@H]([C@@H](C)CC)C(=O)N(C)CC(=O)N(C)[C@H]3CCCCN(C3=O)[C@@H](Cc3ccc(C(F)(F)F)cc3)C(=O)N(C)CC(=O)N[C@@H](CCc3cc(F)c(C(F)(F)F)c(F)c3)C(=O)N2C1 [PP0705]
HRAS /KRAS [1]: C (A compound having a KD ratio of 0.1 or more and less than 3 is denoted as C) | IC50 [2]: 17.5 nM | NRAS /KRAS [3]: C (A compound having a KD ratio of 0.1 or more and less than 3 is denoted as C)

CCO[C@@H]1C[C@H]2C(=O)NC3(CCC3)C(=O)N(C)[C@@H](C3CCCC3)C(=O)N(C)[C@H](C(=O)N(C)C)CC(=O)N(C)C[C@@H](C)C(=O)N[C@@H]([C@@H](C)CC)C(=O)N(C)CC(=O)N(C)[C@H]3CCCCN(C3=O)[C@@H](Cc3ccc(C(F)(F)F)cc3)C(=O)N(C)CC(=O)N[C@@H](CCc3cc(F)c(C(F)(F)F)c(F)c3)C(=O)N2C1 [PP0706]
HRAS /KRAS [1]: B (a compound having 3 or more and less than 10 is denoted as B) | IC50 [2]: 5390 nM | NRAS /KRAS [3]: B (a compound having 3 or more and less than 10 is denoted as B)

CCO[C@@H]1C[C@H]2C(=O)NC3(CCC3)C(=O)N(C)[C@@H](C3CCCC3)C(=O)N(C)[C@H](C(=O)N3CCOCC3)CC(=O)N(C)[C@@H](CC)C(=O)N[C@@H]([C@@H](C)CC)C(=O)N(C)CC(=O)N(C)[C@H]3CCCCN(C3=O)[C@@H](Cc3ccc(C(F)(F)F)cc3)C(=O)N(C)CC(=O)N[C@@H](CCc3cc(F)c(C(F)(F)F)c(F)c3)C(=O)N2C1 [PP0708]
HRAS /KRAS [1]: B (a compound having 3 or more and less than 10 is denoted as B) | IC50 [2]: 5.5 nM | NRAS /KRAS [3]: B (a compound having 3 or more and less than 10 is denoted as B)

CCC[C@H]1C(=O)N[C@@H]([C@@H](C)CC)C(=O)N(C)CC(=O)N(C)[C@H]2CCCCN(C2=O)[C@@H](Cc2ccc(C(F)(F)F)cc2)C(=O)N(C)CC(=O)N[C@@H](CCc2cc(F)c(C(F)(F)F)c(F)c2)C(=O)N2C[C@H](OCC)C[C@H]2C(=O)NC2(CCC2)C(=O)N(C)[C@@H](C2CCCC2)C(=O)N(C)[C@H](C(=O)N2CCOCC2)CC(=O)N1C [PP0709]
HRAS /KRAS [1]: B (a compound having 3 or more and less than 10 is denoted as B) | IC50 [2]: 1 nM | NRAS /KRAS [3]: C (A compound having a KD ratio of 0.1 or more and less than 3 is denoted as C)

C=CC[C@H]1C(=O)N[C@@H]([C@@H](C)CC)C(=O)N(C)CC(=O)N(C)[C@H]2CCCCN(C2=O)[C@@H](Cc2ccc(C(F)(F)F)cc2)C(=O)N(C)CC(=O)N[C@@H](CCc2cc(F)c(C(F)(F)F)c(F)c2)C(=O)N2C[C@H](OCC)C[C@H]2C(=O)NC2(CCC2)C(=O)N(C)[C@@H](C2CCCC2)C(=O)N(C)[C@H](C(=O)N2CCOCC2)CC(=O)N1C [PP0710]
HRAS /KRAS [1]: B (a compound having 3 or more and less than 10 is denoted as B) | IC50 [2]: 4.9 nM | NRAS /KRAS [3]: C (A compound having a KD ratio of 0.1 or more and less than 3 is denoted as C)

C#CC[C@H]1C(=O)N[C@@H]([C@@H](C)CC)C(=O)N(C)CC(=O)N(C)[C@H]2CCCCN(C2=O)[C@@H](Cc2ccc(C(F)(F)F)cc2)C(=O)N(C)CC(=O)N[C@@H](CCc2cc(F)c(C(F)(F)F)c(F)c2)C(=O)N2C[C@H](OCC)C[C@H]2C(=O)NC2(CCC2)C(=O)N(C)[C@@H](C2CCCC2)C(=O)N(C)[C@H](C(=O)N2CCOCC2)CC(=O)N1C [PP0711]
HRAS /KRAS [1]: B (a compound having 3 or more and less than 10 is denoted as B) | IC50 [2]: 6.5 nM | NRAS /KRAS [3]: C (A compound having a KD ratio of 0.1 or more and less than 3 is denoted as C)
